# From patent US20250032567A1, “PLANT-BASED SKIN PREPARATIONS AND USE THEREOF” (priority 2022, published 2025)
# System: cannabis calli
# Assay: Elicitation of callus cultures on solid medium, cannabinoid content by HPLC
# Type: cell-based, Cannabis sativa
# Conditions: elicitors compared for inducing secondary metabolites
row,SMILES,cannabinoid production (elicitor effect)
1,NCCCC(=O)O [GABA],positive results
2,O=P(O)(O)CCCl [ethephon],positive results
3,CCCCCC(=O)O [hexanoic acid],positive results
4,CC/C=C\CC1C(=O)CCC1CC(=O)OC (stereo not shown) [methyl jasmonate],positive results
5,N[C@@H](Cc1ccccc1)C(=O)O [phenylalanine],positive results
6,O=C(O)c1ccccc1O [salicylic acid],positive results
7,N[C@@H](Cc1ccc(O)cc1)C(=O)O [tyrosine],positive results
